# Reference: patent publication US9126952B2, “Morpholinylquinazolines” (Merck Patent GmbH, priority 2010, dated 2015)
# Biological target: DNA-PK (Homo sapiens (Human), UniProt P78527)
# Test: DNA-PK/biochemical assay (FlashPlate kinase assay)
# Conditions: 5 μM ATP, 90 min, room temperature; read-out: Binding DNA-PK IC50
# Procedure: […] To this end, 1.5 μg of the DNA-PK/protein complex and 100 ng of biotinylated substrate, such as, for example, PESQEAFADLWKK biotin-NH2 (“biotin-DNA-PK peptide”), in a total volume of 36.5 μl (34.25 mM HEPES/KOH, 7.85 mM Tris-HCl, 68.5 mM KCl, 5 μM ATP, 6.85 mM MgCl2, 0.5 mM EDTA, 0.14 mM EGTA, 0.69 mM DTT, pH 7.4), were incubated at room temperature for 90 min with 500 ng of DNA from calf thymus, 0.1 μCi of 33P-ATP and 1.8% of DMSO per well with or without the test compound. The reaction was stopped using 50 μl/well of 200 mM EDTA. After incubation for a further 30 min at room temperature, the liquid was removed. Each well was washed three times with 100 μl of 0.9% sodium chloride solution. A non-specific reaction (blank value) was determined using 10 μM of a proprietary kinase inhibitor. The radioactivity measurement was carried out by means of a TopCount. IC50 values were calculated in RS1. • Literature: Kashishian et al. (2003) Molecular Cancer Therapeutics 1257.
row,IC50 [nM],Structure (SMILES)
1,500 to 1000,"c1nc(N2CCCC(CN3CCOCC3)C2)c2ccc(N3CCOCC3)cc2n1 (centres unmarked) [compound 21, 7-Morpholin-4-yl-4-(3-morpholin-4-ylmethylpiperidin-1-yl)quinazoline]"
2,100 to 500,O=C(NC1CCCN(c2nc(Cl)nc3cc(N4CCOCC4)ccc23)C1)c1cscn1 (centres unmarked) [compound 61]
3,100 to 500,"CC1CCCN(c2ncnc3cc(N4CCOCC4)ccc23)C1 (centres unmarked) [compound 12, 4-(3-Methylpiperidin-1-yl)-7-morpholin-4-ylquinazoline]"
4,100 to 500,"c1ccc2oc(C3CCCN(c4ncnc5cc(N6CCOCC6)ccc45)C3)nc2c1 (centres unmarked) [compound 26, 4-(3-Benzoxazol-2-ylpiperidin-1-yl)-7-morpholin-4-yl-quinazoline]"
5,< 100,"Clc1nc(N2CCCC(Cn3cccc3)C2)c2ccc(N3CCOCC3)cc2n1 (centres unmarked) [compound 30, 2-Chloro-7-morpholin-4-yl-4-(3-pyrrol-1-ylmethyl-piperidin-1-yl)-quinazoline]"
6,< 100,"c1ccc2sc(C3CCCN(c4ncnc5cc(N6CCOCC6)ccc45)C3)nc2c1 (centres unmarked) [compound 14, 4-(3-Benzothiazol-2-ylpiperidin-1-yl)-7-morpholin-4-yl-quinazoline]"
7,< 100,"Cc1cnc(C(O)C2CCCN(c3ncnc4cc(N5CCOCC5)ccc34)C2)s1 (centres unmarked) [compound 47, (5-Methyl-thiazol-2-yl)-[1-(7-morpholin-4-ylquinazolin-4-yl)-piperidin-3-yl]-methanol]"
8,100 to 500,"CCOCC1CCCN(c2ncnc3cc(N4CCOCC4)ccc23)C1 (centres unmarked) [compound 18, 4-(3-Ethoxymethyl-piperidin-1-yl)-7-morpholin-4-yl-quinazoline]"
9,100 to 500,"COc1ccc(C2CCCN(c3ncnc4cc(N5CCOCC5)ccc34)C2)cc1 (centres unmarked) [compound 3, 4-[3-(4-Methoxy-phenyl)piperidin-1-yl]-7-morpholin-4-yl-quinazoline]"
10,< 100,"COc1cccc(C(O)C2CCCN(c3ncnc4cc(N5CCOCC5)ccc34)C2)c1 (centres unmarked) [compound 38, (3-Methoxyphenyl)-[1-(7-morpholin-4-yl-quinazolin-4-yl)-piperidin-3-yl]-methanol]"
11,< 100,c1csc(CC2CCCN(c3ncnc4cc(N5CCOCC5)ccc34)C2)n1 (centres unmarked) [compound 32]
12,100 to 500,"c1ccc(C[C@@H]2CCCN(c3ncnc4cc(N5CCOCC5)ccc34)C2)cc1 [compound 11, 4-((S)-3-Benzyl-piperidin-1-yl)-7-morpholin-4-yl-quinazoline]"
13,500 to 1000,"Nc1nc(N2CCCCC2)c2ccc(N3CCOCC3)cc2n1 [compound 57, 7-Morpholin-4-yl-4-piperidin-1-yl-quinazolin-2-ylamine]"
14,< 100,"Clc1nc(N2CCCC(Cc3nccs3)C2)c2ccc(N3CCOCC3)cc2n1 (centres unmarked) [compound 36, 2-Chloro-7-morpholin-4-yl-4-(3-thiazol-2-ylmethyl-piperidin-1-yl)-quinazoline]"
15,> 1000,"COc1nc(N2CCCCC2)c2ccc(N3CCOCC3)cc2n1 [compound 39, 2-Methoxy-7-morpholin-4-yl-4-piperidin-1-yl-quinazoline]"
16,500 to 1000,c1nc(N2CCCC(CC3CCCCC3)C2)c2ccc(N3CCOCC3)cc2n1 (centres unmarked) [compound 10]
17,100 to 500,"COc1ccc(CC2CCCN(c3ncnc4cc(N5CCOCC5)ccc34)C2)cc1OC (centres unmarked) [compound 42, 4[3-(3,4-Dimethoxy-benzyl)piperidin-1-yl]-7-morpholin-4-yl-quinazoline]"
18,500 to 1000,"Cc1noc(C2CCCN(c3ncnc4cc(N5CCOCC5)ccc34)C2)n1 (centres unmarked) [compound 19, 4-[3-(3-Methyl-1,2,4-oxadiazol-5-yl)-piperidin-1-yl]-7-morpholin-4-yl-quinazoline]"
19,< 100,"Cc1cccc(C2CCCN(c3ncnc4cc(N5CCOCC5)ccc34)C2)c1 (centres unmarked) [compound 27, 7-Morpholin-4-yl-4-(3-m-tolylpiperidin-1-yl)quinazoline]"
20,< 100,"O[C@@H](c1nccs1)C1CCCN(c2ncnc3cc(N4CCOCC4)ccc23)C1 (stereo partly drawn) [compound 65, (R)-[1-(7-Morpholin-4-ylquinazolin-4-yl)-piperidin-3-yl]-thiazol-2-yl-methanol]"
21,500 to 1000,"c1ccc2[nH]c(C3CCCN(c4ncnc5cc(N6CCOCC6)ccc45)C3)nc2c1 (centres unmarked) [compound 24, 4-[3-(1H-Benzo-imidazol-2-yl)-piperidin-1-yl]-7-morpholin-4-yl-quinazoline]"
22,< 100,c1cnc(CC2CCCN(c3ncnc4cc(N5CCOCC5)ccc34)C2)nc1 (centres unmarked) [compound 31]
23,< 100,c1cn(CC2CCCN(c3ncnc4cc(N5CCOCC5)ccc34)C2)cn1 (centres unmarked) [compound 23]
24,< 100,"Cc1csc(CC2CCCN(c3ncnc4cc(N5CCOCC5)ccc34)C2)n1 (centres unmarked) [compound 56, 4-[3-(4-Methyl-thiazol-2-ylmethyl)-piperidin-1-yl]-7-morpholin-4-yl-quinazoline]"

row,IC50 [nM],Structure (SMILES)
1,< 100,"OC(c1nccs1)C1CCCN(c2ncnc3cc(N4CCOCC4)ccc23)C1 (centres unmarked) [compound 46, [1-(7-Morpholin-4-yl-quinazolin-4-yl)-piperidin-3-yl]-thiazol-2-yl-methanol]"
2,100 to 500,"O=C(C1CCCN(c2ncnc3cc(N4CCOCC4)ccc23)C1)N1CCCCC1 (centres unmarked) [compound 20, [1-(7-Morpholin-4-yl-quinazoline-4-yl)-piperidin-3-yl]-piperidin-1-yl-methanone]"
3,< 100,"Cc1csc(C(O)C2CCCN(c3ncnc4cc(N5CCOCC5)ccc34)C2)n1 (centres unmarked) [compound 49, (4-Methylthiazol-2-yl)-[1-(7-morpholin-4-ylquinazolin-4-yl)-piperidin-3-yl]-methanol]"
4,< 100,c1csc(CC2CCCN(c3ncnc4cc(N5CCOCC5)ccc34)C2)c1 (centres unmarked) [compound 33]
5,< 100,"Cc1cnc(CC2CCCN(c3ncnc4cc(N5CCOCC5)ccc34)C2)s1 (centres unmarked) [compound 51, 4-[3-(5-Methyl-thiazol-2-ylmethyl)-piperidin-1-yl]-7-morpholin-4-yl-quinazoline]"
6,< 100,"c1nc(N2CCCCC2)c2ccc(N3CCOCC3)cc2n1 [compound 1, 7-Morpholin-4-yl-4-piperidin-1-yl-quinazoline]"
7,100 to 500,"c1ccc2sc(CC3CCCN(c4ncnc5cc(N6CCOCC6)ccc45)C3)nc2c1 (centres unmarked) [compound 43, 4-(3-Benzothiazol-2-ylmethylpiperidin-1-yl)-7-morpholin-4-yl-quinazoline]"
8,< 100,"Cc1nc(C(O)C2CCCN(c3ncnc4cc(N5CCOCC5)ccc34)C2)sc1C (centres unmarked) [compound 48, (4,5-Dimethyl-thiazol-2-yl)-[1-(7-morpholin-4-yl-quinazolin-4-yl)-piperidin-3-yl]-methanol]"
9,< 100,"c1ccc([C@H]2CCCN(c3ncnc4cc(N5CCOCC5)ccc34)C2)cc1 [compound 6, 7-Morpholin-4-yl-4-((R)-3-phenyl-piperidin-1-yl)-quinazoline]"
10,< 100,O=C(NC1CCCN(c2nc(Cl)nc3cc(N4CCOCC4)ccc23)C1)c1cncs1 (centres unmarked) [compound 59]
11,< 100,"OC(c1ccsc1)C1CCCN(c2ncnc3cc(N4CCOCC4)ccc23)C1 (centres unmarked) [compound 45, [1-(7-Morpholin-4-yl-quinazolin-4-yl)-piperidin-3-yl]-thiophen-3-yl-methanol]"
12,100 to 500,"Cn1ccnc1C(O)C1CCCN(c2ncnc3cc(N4CCOCC4)ccc23)C1 (centres unmarked) [compound 55, (1-Methyl-1H-imidazol-2-yl)-[1-(7-morpholin-4-yl-quinazolin-4-yl)-piperidin-3-yl]-methanol]"
13,< 100,c1nc(N2CCCC(Cc3ccsc3)C2)c2ccc(N3CCOCC3)cc2n1 (centres unmarked) [compound 44]
14,< 100,"c1csc(C2CCCN(c3ncnc4cc(N5CCOCC5)ccc34)C2)c1 (centres unmarked) [compound 40, 7-Morpholin-4-yl-4-(3-thiophen-2-yl-piperidin-1-yl)-quinazoline]"
15,500 to 1000,"Fc1ccc2[nH]cc(C3CCCN(c4ncnc5cc(N6CCOCC6)ccc45)C3)c2c1 (centres unmarked) [compound 9, 4-[3-(5-Fluoro-1H-indol-3-yl)piperidin-1-yl]-7-morpholin-4 ylquinazoline]"
16,< 100,"Cc1nc(CC2CCCN(c3ncnc4cc(N5CCOCC5)ccc34)C2)sc1C (centres unmarked) [compound 52, 4-[3-(4,5-Dimethyl-thiazol-2-ylmethyl)-piperidin-1-yl]-7-morpholin-4-yl-quinazoline]"
17,> 1000,"Cc1nc(N2CCCCC2)c2ccc(N3CCOCC3)cc2n1 [compound 34, 2-Methyl-7-morpholin-4-yl-4-piperidin-1-yl-quinazoline]"
18,< 100,Clc1nc(N2CCCCC2)c2ccc(N3CCOCC3)cc2n1 [compound 2]
19,< 100,"O=C(c1nccs1)C1CCCN(c2ncnc3cc(N4CCOCC4)ccc23)C1 (centres unmarked) [compound 50, [1-(7-Morpholin-4-yl-quinazolin-4-yl)-piperidin-3-yl]-thiazol-2-yl-methanone]"
20,100 to 500,"c1nc(N2CCCC2)c2ccc(N3CCOCC3)cc2n1 [compound 7, 7-Morpholin-4-yl-4 pyrrolidin-1-yl-quinazoline]"
21,100 to 500,"c1nc(N2CCCCCC2)c2ccc(N3CCOCC3)cc2n1 [compound 8, 4-Azepan-1-yl-7-morpholin-4-yl-quinazoline]"
22,100 to 500,"c1ccc([C@@H]2CCCN(c3ncnc4cc(N5CCOCC5)ccc34)C2)cc1 [compound 5, 7-Morpholin-4-yl-4-((S)-3-phenyl-piperidin-1-yl)-quinazoline]"
23,100 to 500,"c1ccc2sc(CC3CCCN(c4ncnc5cc(N6CCOCC6)ccc45)C3)cc2c1 (centres unmarked) [compound 35, 4-(3-Benzo[b]-thiophen-2-ylmethyl-piperidin-1-yl)-7-morpholin-4-yl-quinazoline]"
